# Laboratory results: patent US8546440B2, “Substituted bicyclic imidazole derivatives as gamma secretase modulators” (Janssen Pharmaceuticals, Inc., priority 2008, dated 2013)
# Key:
# [1] = test system: Aβtotal; experiment: Demonstration of in vivo efficacy: Aβtotal lowering in brain after single oral dose (Table 13); conditions: mouse brain soluble fraction, mean, compared to untreated animals
# Excerpt: (§1) To determine whether acute administration of an Aβ42 lowering agent would reduce Aβ42 levels in vivo, non-transgenic rodents, e.g. mice or rats were used. Alternatively, two to three month old Tg2576 mice expressing APP695 containing the “Swedish” variant can be used or a transgenic mouse model developed by Dr. Fred Van Leuven (K. U. Leuven, Belgium) and co-workers, with neuron-specific expression of a clinical mutant of the human amyloid precursor protein [V717I] (Moechars et al., 1999 J. Biol. Chem. 274, 6483). Young transgenic mice have high levels of Aβ in the brain but no detectable Aβ deposition. At approximately 6-8 months of age, the transgenic mice start to display spontaneous, progressive accumulation of β-amyloid (Aβ) in the brain, eventually resulting in amyloid plaques within the subiculum, hippocampus and cortex. Animals treated with the Aβ42 lowering agent were examined and compared to those untreated or treated with vehicle and brain levels of soluble Aβ42 and total Aβ would be quantitated by standard techniques, for example, using ELISA. Treatment periods varied from hours to days and were adjusted based on the results of the Aβ42 lowering once a time course of onset of effect could be established.
# (§2) A typical protocol for measuring Aβ42 lowering in vivo is shown but it is only one of many variations that could be used to optimize the levels of detectable Aβ. For example, Aβ42 lowering compounds were formulated in 20% of Captisol® (a sulfobutyl ether of β-cyclodextrin) in water or 20% hydroxypropyl β cyclodextrin. The Aβ42 lowering agents were administered as a single oral dose or by any acceptable route of administration to overnight fasted animals. After four hours, the animals were sacrificed and Aβ42 levels were analysed.
# (§3) Blood was collected by decapitation and exsanguinations in EDTA-treated collection tubes. Blood was centrifuged at 1900 g for 10 minutes at 4° C. and the plasma recovered and flash frozen for later analysis. The brain was removed from the cranium and hindbrain. The cerebellum was removed and the left and right hemisphere were separated. The left hemisphere was stored at −18° C. for quantitative analysis of test compound levels. The right hemisphere was rinsed with phosphate-buffered saline (PBS) buffer and immediately frozen on dry ice and stored at −80° C. until homogenization for biochemical assays.
# Mouse brains were resuspended in 10 volumes of 0.4% DEA (diethylamine)/50 mM NaCl pH 10 (for non-transgenic animals) or 0.1% 3-[3-cholamidopropyl)-dimethyl-ammonio]-1-propanesulfonate (CHAPS) in tris buffered saline (TBS) (for transgenic animals) containing protease inhibitors (Roche-11873580001 or 04693159001) per gram of tissue, e.g. for 0.158 g brain, add 1.58 ml of 0.4% DEA. All samples were sonicated for 30 seconds on ice at 20% power output (pulse mode). Homogenates were centrifuged at 221.300×g for 50 min. The resulting high speed supernatants were then transferred to fresh tubes and were optionally further purified before the next step. A portion of the supernatant was neutralized with 10% 0.5 M Tris-HCl and this was used to quantify Aβtotal. […]
# In this model at least 20% Aβ42 lowering compared to untreated animals would be advantageous.
# [2] = test system: Aβ42; experiment: Demonstration of in vivo efficacy: Aβ42 lowering in brain after single oral dose (Table 13); conditions: mouse brain soluble fraction, ELISA, mean, compared to untreated animals
# Excerpt: as §1, §2, §3
# Mouse brains were resuspended in 10 volumes of 0.4% DEA (diethylamine)/50 mM NaCl pH 10 (for non-transgenic animals) or 0.1% 3-[3-cholamidopropyl)-dimethyl-ammonio]-1-propanesulfonate (CHAPS) in tris buffered saline (TBS) (for transgenic animals) containing protease inhibitors (Roche-11873580001 or 04693159001) per gram of tissue, e.g. for 0.158 g brain, add 1.58 ml of 0.4% DEA. All samples were sonicated for 30 seconds on ice at 20% power output (pulse mode). Homogenates were centrifuged at 221.300×g for 50 min. The resulting high speed supernatants were then transferred to fresh tubes and were optionally further purified before the next step. A portion of the supernatant was neutralized with 10% 0.5 M Tris-HCl and this was used to quantify Aβtotal.
# The obtained supernatants were purified with Water Oasis HLB reverse phase columns (Waters Corp., Milford, Mass.) to remove non-specific immunoreactive material from the brain lysates prior subsequent Aβ detection. Using a vacuum manifold, all solutions were passed through the columns at a rate of approximately 1 ml per minute, so the vacuum pressure was adjusted accordingly throughout the procedure. Columns were preconditioned with 1 ml of 100% MeOH, before equilibration with 1 ml of H2O. Non-neutralized brain lysates were loaded onto the columns. The loaded samples were then washed twice with the first wash performed with 1 ml of 5% MeOH, and the second wash with 1 ml of 30% MeOH. Finally, the Aβ was eluted from the columns and into 100×30 mm glass tubes, with a solution of 90% MeOH with 2% NH4OH. […]
melting point [°C],Compound,Aβtotal (% Ctrl)_Mean [1] [% Ctrl],Aβ42 (% Ctrl)_Mean [2] [% Ctrl]
,COc1cccc(-c2cn3cccc(Nc4ccc(-n5cnc(C)c5)c(OC)c4)c3n2)c1 [Compound 33],98,80
168.9,COc1cc(Nc2cccn3c(Cl)c(-c4ccc(F)cc4)nc23)ccc1-n1cnc(C)c1 [Compound 2],106,100
,COc1cc(Nc2cccn3c(C)c(-c4ccccc4C(F)(F)F)nc23)ccc1-n1cnc(C)c1 [Compound 29],86,56
,COc1cc(Nc2cccn3cc(C)nc23)ccc1-n1cnc(C)c1 [Compound 50],96,67
204,COc1cc(Nc2cccn3c(C)c(-c4ccccc4Cl)nc23)ccc1-n1cnc(C)c1 [Compound 15],94,62
198.2,COc1cc(Nc2cccn3c(C)c(-c4c(F)cccc4F)nc23)ccc1-n1cnc(C)c1 [Compound 27],94,59
,COc1nc(Nc2cccn3c(C)c(-c4ccccc4C(F)(F)F)nc23)ccc1-n1cnc(C)c1 [Compound 138],102,65
,COc1cc(Nc2cccn3cc(C4CCOCC4)nc23)ccc1-n1cnc(C)c1 [Compound 4],111,93
,Cc1ncn(-c2ccc(Nc3cccn4cc(-c5ccccc5C)nc34)cc2)n1 [Compound 71],103,91
209.2,COc1cc(Nc2cccn3cc(-c4ccc(F)cc4)nc23)ccc1-n1cnc(C)c1 [Compound 1],103,65
177.8,COc1cc(Nc2cccn3c(C)c(-c4ccccc4)nc23)ccc1-n1cnc(C)c1 [Compound 5],96,66
